This passage reports Kd, ΔTm and IC50 results from patent publication US20250188110A1, “SPECIFIC SMALL MOLECULE INHIBITORS THAT BLOCK KMT9 METHYLTRANSFERASE ACTIVITY AND FUNCTION” (ALBERT-LUDWIGS-UNIVERSITÄT FREIBURG, priority 2021, published 2025).

Like-named read-outs stand apart in the source and are kept apart here.

For assay [1], the target named is T1, KMT9 (Homo sapiens, UniProt Q9Y5N5).
T1 sequence (Q9Y5N5 1-214): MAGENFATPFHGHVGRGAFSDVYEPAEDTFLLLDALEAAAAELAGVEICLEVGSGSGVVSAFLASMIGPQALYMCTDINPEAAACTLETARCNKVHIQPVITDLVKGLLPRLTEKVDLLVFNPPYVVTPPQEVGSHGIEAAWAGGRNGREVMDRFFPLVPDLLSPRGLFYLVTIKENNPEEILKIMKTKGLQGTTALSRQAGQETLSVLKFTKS
T1 sequence (Q9UI30 1-120 isoform Q9UI30-2 partner): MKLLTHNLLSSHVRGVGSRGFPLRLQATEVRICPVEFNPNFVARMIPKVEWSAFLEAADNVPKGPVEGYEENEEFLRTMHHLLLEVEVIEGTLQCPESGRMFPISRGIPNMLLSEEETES
The experiment in a line: Microscale thermophoresis (MST) KMT9 binding. The essentials: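 Kd from microscale thermophoresis: compound series against 20 nM His-KMT9 labelled via RED-Tris-NTA, buffer 25 mM HEPES (pH 7.5)/100 mM NaCl/1 mM DTT/0.05% Tween, 40% MST power, 100% LED. Reported as classes: A ≤10 nM, B >10–100 nM, C >100–1000 nM, D >1000 nM.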
Background: Microscale thermophoresis detects binding through changes in fluorescence in a small temperature gradient.

For assay [2], the target named is T1, KMT9. The experiment in a line: KMT9 thermal shift assay (SyproOrange). Type of assay: binding. In outline:
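ΔTm versus DMSO-only control is reported in bins (>20 K, 15–20 K, 10–15 K, ≤10 K), using Tm from Boltzmann sigmoidal fits of SyproOrange melt curves. KMT9 with compound in pH 8.5 BTP buffer containing MgCl2 and DTT was preincubated at 25° C, then ramped 1° C per 15 s up to 95° C.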

In assay [3] the target is T1, KMT9. The experiment in a line: KMT9 methyltransferase inhibition assay, MTaseGlo luminescence (from entry 155). Type of assay: biochemical. Conditions: 100 nM KMT9, 5 μM ETF1, 1 μM SAM. In outline: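 KMT9 (100 nM final) pre-incubated with inhibitor for 15 min at room temperature, then reacted with 5 μM ETF1 and 1 μM SAM for 2 h at 30° C. at 2% DMSO final. MTaseGlo luminescence read after 60 min detection; IC50 reported in four potency bins.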

The mark [4] stands for this setting: His-tag labelled KMT9 20 nM, read-out: MST (Kd).
The mark [5] stands for this setting: 500 µM compound, 2 μM KMT9, read-out: Thermal shift (ΔTm).
Where [6] appears, read: MTaseGlo procedure (entries from 155), read-out: Inhibition (IC50).
Where [7] appears, read: microscale thermophoresis, His-tag labelled KMT9 (20 nM), read-out: MST.
Where [8] appears, read: ΔTm, 500 µM compound, 2 μM KMT9, 5X SO, read-out: Thermal shift.
Setting [9] is: from entry 155: MTaseGlo assay, read-out: Inhibition.
[10] abbreviates: His-tag labelled KMT9 20 nM, Kd class, read-out: MST.
The mark [11] stands for this setting: ΔTm class, 500 uM compound, 2 μM KMT9, read-out: Thermal shift.
Where [12] appears, read: IC50 class, MTaseGlo procedure (entries from 155 on), read-out: Inhibition.

Consider `CC1CNCCC1[C@H]1C[C@@H](n2cc(-c3nc(Cc4ccccc4)cs3)c3c(N)ncnc32)[C@H](O)[C@@H]1O` (stereo partly drawn) [Compound 595, (1R,2S,3R,5R)-3-[4-amino-5-(4-benzyl-1,3-thiazol-2-yl)pyrrolo[2,3-d]pyrimidin-7-yl]-5-(3-methylpiperidin-4-yl)cyclopentane-1,2-diol], for which, on KMT9 [1] (setting [4]), the Kd was in the range of 100 to 1000 nM. Moreover, the ΔTm at 500 µM on KMT9 [2] (setting [5]) is 10 to 15 °C. The IC50 at KMT9 [3] (setting [6]) lay in the range of 1000 to 10000 nM.

In the case of `CNc1nc(Cl)nc2c1ccn2[C@@H]1C[C@H](c2ccccc2)[C@@H](O)[C@H]1O` [Compound 596, (1R,2S,3R,5R)-3-(2-Chloro-4-(methylamino)-7H-pyrrolo[2,3-d]pyrimidin-7-yl)-5-phenylcyclopentane-1,2-diol], the Kd on KMT9 [1] (setting [4]) is 100 to 1000 nM. Also, the ΔTm at 500 µM on KMT9 [2] (setting [5]) is no more than 10 °C. Also, the IC50 on KMT9 [3] (setting [6]) lay within 1000 to 10000 nM.

Turning to `CN1CCC[C@H]([C@H]2C[C@@H](n3cc(-c4nc(Cc5ccccc5)cs4)c4c(N)nc(Cl)nc43)[C@H](O)[C@@H]2O)C1` [Compound 597R, (1R,2S,3R,5R)-3-(4-Amino-5-(4-benzylthiazol-2-yl)-2-chloro-7H-pyrrolo[2,3-d]pyrimidin-7-yl)-5-((R)-1-methylpiperidin-3-yl)cyclopentane-1,2-diol], the Kd at KMT9 [1] (setting [4]) is no more than 10 nM. For the same molecule, the ΔTm at 500 µM at KMT9 [2] (setting [5]) was in the range of 15 to 20 °C. The IC50 on KMT9 [3] (setting [6]) is 100 to 1000 nM.

Regarding `CN1CCC[C@@H]([C@H]2C[C@@H](n3cc(-c4nc(Cc5ccccc5)cs4)c4c(N)nc(Cl)nc43)[C@H](O)[C@@H]2O)C1` [Compound 597S, (1R,2S,3R,5R)-3-(4-amino-5-(4-benzylthiazol-2-yl)-2-chloro-7H-pyrrolo[2,3-d]pyrimidin-7-yl)-5-((S)-1-methylpiperidin-3-yl)cyclopentane-1,2-diol], the Kd on KMT9 [1] (setting [4]) is no more than 10 nM. Further, at KMT9 [2] (setting [5]), the ΔTm at 500 µM lay within 15 to 20 °C. Also, the IC50 at KMT9 [3] (setting [6]) was in the range of 100 to 1000 nM.

Consider `Nc1ncnc2c1c(-c1nc(Oc3ccccc3)cs1)cn2[C@@H]1C[C@H](CNCCCNCCc2ccccc2)[C@@H](O)[C@H]1O` [Compound 607, (1R,2S,3R,5R)-3-(4-amino-5-(4-phenoxythiazol-2-yl)-7H-pyrrolo[2,3-d]pyrimidin-7-yl)-5-(((3-(phenethylamino)propyl)amino)methyl)cyclopentane-1,2-diol], for which the Kd on KMT9 [1] (setting [7]) is 10 to 100 nM. In addition, at KMT9 [2] (setting [8]), the ΔTm at 500 µM is 15 to 20 °C. The IC50 at KMT9 [3] (setting [9]) lay in the range of 100 to 1000 nM.

In the case of `O[C@@H]1[C@@H](CNCCCNCCc2ccccc2)C[C@@H](n2cc(-c3nc(Cc4ccccc4)cs3)c3cncnc32)[C@@H]1O` [Compound 613, (1R,2S,3R,5R)-3-(5-(4-benzylthiazol-2-yl)-7H-pyrrolo[2,3-d]pyrimidin-7-yl)-5-(((3-(phenethylamino)propyl)amino)methyl)cyclopentane-1,2-diol], on KMT9 [1] (setting [7]), the Kd is greater than 1000 nM. For the same molecule, the ΔTm at 500 µM on KMT9 [2] (setting [8]) lay within 10 to 15 °C. Also, the IC50 at KMT9 [3] (setting [9]) lay in the range of 1000 to 10000 nM.

For `COc1csc(-c2cn([C@@H]3C[C@H](CNCCCNCCc4ccccc4)[C@@H](O)[C@H]3O)c3ncncc23)n1` [Compound 615, (1R,2S,3R,5R)-3-(5-(4-Methoxythiazol-2-yl)-7H-pyrrolo[2,3-d]pyrimidin-7-yl)-5-(((3-(phenethylamino)propyl)amino)methyl)cyclopentane-1,2-diol], at KMT9 [1] (setting [10]), the Kd is greater than 1000 nM. For the same molecule, the ΔTm at 500 µM at KMT9 [2] (setting [11]) was no more than 10 °C. At KMT9 [3] (setting [12]), the IC50 is greater than 10000 nM.

`O[C@@H]1[C@@H](CN(CCCNCCc2ccccc2)c2cn[nH]c2)C[C@@H](n2cc(-c3cccs3)c3cncnc32)[C@@H]1O` [Compound 616]: the Kd at KMT9 [1] (setting [7]) was 10 to 100 nM. Besides, the ΔTm at 500 µM on KMT9 [2] (setting [8]) is 10 to 15 °C. In addition, the IC50 on KMT9 [3] (setting [9]) is 1000 to 10000 nM.

Turning to `O[C@@H]1[C@@H](CNCCCNCCc2ccccc2)C[C@@H](n2cc(-c3cc(Cc4ccccc4)ns3)c3cncnc32)[C@@H]1O` [Compound 617, (1R,2S,3R,5R)-3-[5-(3-Benzyl-1,2-thiazol-5-yl)pyrrolo[2,3-d]pyrimidin-7-yl]-5-[({3-[(2-phenylethyl)amino]propyl}amino)methyl]cyclopentane-1,2-diol], the Kd on KMT9 [1] (setting [7]) was greater than 1000 nM. The ΔTm at 500 µM on KMT9 [2] (setting [8]) lay in the range of 10 to 15 °C. On KMT9 [3] (setting [9]), the IC50 lay in the range of 1000 to 10000 nM.

Regarding `O[C@@H]1[C@@H](CNCCCNCCc2ccc(F)cc2)C[C@@H](n2cc(-c3cc(Cc4ccccc4)cs3)c3cncnc32)[C@@H]1O` [Compound 618, (1R,2S,3R,5R)-3-[5-(4-Benzylthiophen-2-yl)pyrrolo[2,3-d]pyrimidin-7-yl]-5-{[(3-{[2-(4-fluorophenyl)ethyl]amino}propyl)amino]methyl}cyclopentane-1,2-diol], at KMT9 [1] (setting [10]), the Kd was in the range of 100 to 1000 nM. Also, at KMT9 [2] (setting [11]), the ΔTm at 500 µM fell in the range of 10 to 15 °C. For the same molecule, the IC50 at KMT9 [3] (setting [12]) lay in the range of 1000 to 10000 nM.

On to `O[C@@H]1[C@@H](CNCCCNCCc2ccc(C(F)(F)F)cc2)C[C@@H](n2cc(-c3cc(Cc4ccccc4)cs3)c3cncnc32)[C@@H]1O` [Compound 619, (1R,2S,3R,5R)-3-(5-(4-Benzylthiophen-2-yl)-7H-pyrrolo[2,3-d]pyrimidin-7-yl)-5-(((3-((4-(trifluoromethyl)phenethyl)amino)propyl)amino)methyl)cyclopentane-1,2-diol], for which, on KMT9 [1] (setting [10]), the Kd was greater than 1000 nM. Moreover, the ΔTm at 500 µM on KMT9 [2] (setting [11]) is no more than 10 °C. Besides, the IC50 on KMT9 [3] (setting [12]) is greater than 10000 nM.

Turning to `CN(CCCNCCc1ccccc1)C[C@H]1C[C@@H](n2cc(-c3cc(Cc4ccccc4)cs3)c3cncnc32)[C@H](O)[C@@H]1O` [Compound 620, (1R,2S,3R,5R)-3-[5-(4-Benzylthiophen-2-yl)pyrrolo[2,3-d]pyrimidin-7-yl]-5-{[methyl({3-[(2-phenylethyl)amino]propyl})amino]methyl}cyclopentane-1,2-diol], the Kd on KMT9 [1] (setting [10]) fell in the range of 100 to 1000 nM. The ΔTm at 500 µM at KMT9 [2] (setting [11]) fell in the range of 10 to 15 °C. Besides, the IC50 at KMT9 [3] (setting [12]) was in the range of 1000 to 10000 nM.

For `O[C@@H]1[C@@H](CNCCCNCCc2ccccc2)C[C@@H](n2cc(-c3cc(Cc4ccccc4)cs3)c3cnc(Cl)nc32)[C@@H]1O` [Compound 621, (1R,2S,3R,5R)-3-[5-(4-Benzylthiophen-2-yl)-2-chloropyrrolo[2,3-d]pyrimidin-7-yl]-5-[{{3-[(2-phenylethyl)amino]propyl}amino)methyl]cyclopentane-1,2-diol], the Kd on KMT9 [1] (setting [7]) was 100 to 1000 nM. Further, the ΔTm at 500 µM on KMT9 [2] (setting [8]) is 15 to 20 °C. Besides, the IC50 at KMT9 [3] (setting [9]) lay within 1000 to 10000 nM.

In the case of `CS(=O)(=O)n1ccc(-c2cn([C@@H]3C[C@H](CNCCCNCCc4ccccc4)[C@@H](O)[C@H]3O)c3nc(Cl)ncc23)n1` [Compound 622, (1R,2S,3R,5R)-3-(2-Chloro-5-(1-(methylsulfonyl)-1H-pyrazol-3-yl)-7H-pyrrolo[2,3-d]pyrimidin-7-yl)-5-(((3-(phenethylamino)propyl)amino)methyl)cyclopentane-1,2-diol], the Kd on KMT9 [1] (setting [10]) was in the range of 100 to 1000 nM. Besides, the ΔTm at 500 µM on KMT9 [2] (setting [11]) lay in the range of 15 to 20 °C. For the same molecule, the IC50 on KMT9 [3] (setting [12]) fell in the range of 100 to 1000 nM.

Take `O[C@@H]1[C@@H](CNCCCNCCc2ccccc2)C[C@@H](n2cc3c4c(ncnc42)NCCC3)[C@@H]1O` [Compound 628, (1S,2R,3R,5R)-3-(((3-(Phenethylamino)propyl)amino)methyl)-5-(6,7,8,9-tetrahydro-2H-2,3,5,6-tetraazabenzo[cd]azulen-2-yl)cyclopentane-1,2-diol]: the Kd on KMT9 [1] (setting [7]) was 100 to 1000 nM. At KMT9 [2] (setting [8]), the ΔTm at 500 µM was in the range of 10 to 15 °C. The IC50 at KMT9 [3] (setting [9]) fell in the range of 1000 to 10000 nM.
